Where a name gives a salt, the structure may show the parent alone.
How the values were obtained:
AXL = target: T1, AXL (Homo sapiens, UniProt P30530); test: IMAP fluorescence polarization kinase assay, AXL; assay type: biochemical; settings: ATP 24.7 μM, enzyme 2.5 nM, 240 minutes, read-out: AXL inhibitory constant (Ki)
T1 sequence (P30530 26-894): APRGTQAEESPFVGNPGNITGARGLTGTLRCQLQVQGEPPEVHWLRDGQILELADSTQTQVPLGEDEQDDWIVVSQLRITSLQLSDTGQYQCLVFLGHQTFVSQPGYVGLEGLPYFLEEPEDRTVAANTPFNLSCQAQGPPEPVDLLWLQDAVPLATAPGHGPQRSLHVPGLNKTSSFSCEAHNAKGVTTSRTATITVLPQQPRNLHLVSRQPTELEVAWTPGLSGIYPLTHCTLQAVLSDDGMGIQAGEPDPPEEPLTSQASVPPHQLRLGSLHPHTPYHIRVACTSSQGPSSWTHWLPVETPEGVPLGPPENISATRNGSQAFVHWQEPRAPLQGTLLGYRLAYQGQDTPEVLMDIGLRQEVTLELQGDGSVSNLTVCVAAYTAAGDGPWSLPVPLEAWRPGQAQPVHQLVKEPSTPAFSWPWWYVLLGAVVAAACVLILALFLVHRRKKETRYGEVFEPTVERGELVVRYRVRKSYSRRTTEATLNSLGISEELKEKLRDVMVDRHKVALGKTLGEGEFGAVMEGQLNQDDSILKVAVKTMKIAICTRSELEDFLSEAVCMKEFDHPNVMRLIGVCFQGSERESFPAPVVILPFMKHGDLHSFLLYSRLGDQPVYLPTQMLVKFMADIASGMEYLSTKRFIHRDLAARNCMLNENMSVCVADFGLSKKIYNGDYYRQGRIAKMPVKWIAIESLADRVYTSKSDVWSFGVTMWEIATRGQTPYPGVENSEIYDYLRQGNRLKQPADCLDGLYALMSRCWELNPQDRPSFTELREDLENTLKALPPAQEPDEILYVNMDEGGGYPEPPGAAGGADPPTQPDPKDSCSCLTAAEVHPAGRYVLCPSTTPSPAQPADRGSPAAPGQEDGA
Description: (§1) Activities of compounds against each of TYRO3, AXL, and MERTK as well as against FLT3, were determined using an immobilized metal ion affinity-based fluorescence polarization (“IMAP”) assay. A fluorescently-labeled substrate peptide was phosphorylated in the kinase reaction, after which a binding solution containing large trivalent metal-based nanoparticles was added and the phosphorylated substrate binds to these beads. This reduces the rotational speed of the substrate which is then detected using fluorescence polarization as a read-out.
(§2) The substrates used for each enzyme are as follows: AXL: 5F1-KKKKEEIYFFFG-NH2(SEQ ID NO:1); FLT3: 5F1-KKKKEEIYFFF-NH2 (SEQ ID NO:2); MERTK: 5F1-EFPIYDFLPAKKK-NH2 (SEQ ID NO:3); and TYRO3: 5F1-EFPIYDFLPAKKK-NH2 (SEQ ID NO:4).
(§3) This assay was performed in a 384-well, polystyrene microplate in a final volume of 8 μl. Substrate (final concentration=400 nM), ATP (final concentrations=24.7μM for AXL; 2.74 μM for FLT3; 2.69 μM for MERTK; and 54.0 μM for TYRO3), compounds and enzyme (final concentrations=2.5 nM for AXL, FLT3 and TYRO3; 1.5 nM for MERTK) were pipetted in this order into the appropriate reaction buffer (AXL: 50 mM HEPES, pH 8.0, 1 mM DTT, 10 mM MgCl2, 0.01% BRU35, 0.01% Triton X-100; FLT3: 50 mM HEPES, pH 8.0, 1 mM DTT, 10 mM MgCl2, 0.01% Triton X-100, 0.01% NP40; MERTK/TYRO3: 50 mM HEPES, pH 8.0, 1 mM DTT, 10 mM MgCl2, 0.01% Triton X-100) and incubated at room temperature for varying times (AXL, FLT3 and MERTK: 240 minutes; TYRO3: 60 minutes). IMAP binding solution was then dispensed, the plate incubated for 60 minutes at room temperature and the fluorescence polarization measured. Data were analyzed using XLfit.

MERTK = target: T2, MERTK (Homo sapiens, UniProt Q12866); test: IMAP fluorescence polarization kinase assay, MERTK; assay type: biochemical; settings: ATP 2.69 μM, enzyme 1.5 nM, 240 minutes, read-out: MERTK inhibitory constant (Ki)
T2 sequence (Q12866 21-999): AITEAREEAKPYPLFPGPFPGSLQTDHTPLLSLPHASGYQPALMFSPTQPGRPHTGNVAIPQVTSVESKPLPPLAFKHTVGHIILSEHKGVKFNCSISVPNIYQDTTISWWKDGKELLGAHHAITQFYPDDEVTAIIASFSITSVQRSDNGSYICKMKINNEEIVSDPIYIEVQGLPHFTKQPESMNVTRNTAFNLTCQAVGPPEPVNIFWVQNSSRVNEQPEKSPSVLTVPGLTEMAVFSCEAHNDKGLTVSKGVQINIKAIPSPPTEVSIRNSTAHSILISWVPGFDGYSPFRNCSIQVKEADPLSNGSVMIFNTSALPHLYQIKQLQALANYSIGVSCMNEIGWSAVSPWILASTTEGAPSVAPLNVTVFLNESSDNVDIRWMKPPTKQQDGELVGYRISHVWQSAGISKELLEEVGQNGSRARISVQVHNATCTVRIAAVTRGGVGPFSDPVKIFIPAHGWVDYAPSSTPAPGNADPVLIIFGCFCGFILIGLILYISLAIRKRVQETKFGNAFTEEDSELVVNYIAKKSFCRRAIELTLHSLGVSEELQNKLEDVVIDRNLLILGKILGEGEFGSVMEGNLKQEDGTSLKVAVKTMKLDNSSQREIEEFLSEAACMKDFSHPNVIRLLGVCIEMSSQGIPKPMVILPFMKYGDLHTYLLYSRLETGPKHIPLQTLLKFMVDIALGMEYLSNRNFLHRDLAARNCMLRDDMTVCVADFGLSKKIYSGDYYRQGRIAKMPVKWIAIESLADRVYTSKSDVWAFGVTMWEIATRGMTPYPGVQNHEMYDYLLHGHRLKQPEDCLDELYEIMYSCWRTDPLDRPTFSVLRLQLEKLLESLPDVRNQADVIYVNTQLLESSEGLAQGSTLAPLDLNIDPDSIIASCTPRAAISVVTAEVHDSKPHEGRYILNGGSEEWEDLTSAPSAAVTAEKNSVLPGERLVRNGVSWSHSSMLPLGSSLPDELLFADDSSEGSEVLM
Description: as §1, §2, §3

`CCCc1cc2c(N[C@H]3CC[C@H](N)CC3)c(C(=O)Nc3ccc(F)cc3)cnc2[nH]1` [Compound 100, 4-(((1r,4r)-4-aminocyclohexyl)amino)-N-(4-fluorophenyl)-2-propyl-1H-pyrrolo [2,3-b]pyridine-5-carboxamide hydrochloride] gave a Ki (AXL) of 1000 to 10000 nM and a Ki (MERTK) of under 100 nM.

With `CCCc1cc2c(N[C@H]3CC[C@H](O)CC3)c(C(=O)Nc3ccc(F)cc3)cnc2[nH]1` [Compound 101] the Ki (AXL) was over 10000 nM and the Ki (MERTK) was 100 to 1000 nM.

`CCCc1cc2c(N[C@H]3CC[C@H](O)CC3)c(C(=O)NCc3ccc(-n4ccnc4)cc3)cnc2[nH]1` [Compound 102] showed a Ki (AXL) of 100 to 1000 nM and a Ki (MERTK) of under 100 nM.

In the case of `Cc1cc2c(N[C@H]3CC[C@H](N)CC3)c(C(=O)Nc3ccc(F)cc3)cnc2[nH]1` [Compound 103], the Ki (AXL) is reported as 100 to 1000 nM and the Ki (MERTK) is reported as under 100 nM.

`CCCc1cc2c(N[C@H]3CC[C@H](O)CC3)c(C(=O)NC3CCN(c4ncccn4)CC3)cnc2[nH]1` [Compound 104] was tested, and the Ki (AXL) was 1000 to 10000 nM and the Ki (MERTK) was under 100 nM.

Work on `CCCc1cc2c(N[C@H]3CC[C@H](O)CC3)c(-c3ccc(CN4CCOCC4)cn3)cnc2[nH]1` [Compound 105] yielded a Ki (AXL) of 100 to 1000 nM and a Ki (MERTK) of under 100 nM.

With `CCCc1cc2c(N[C@H]3CC[C@H](O)CC3)c(-c3ccc(CN4CCOCC4)cc3)cnc2[nH]1` [Compound 106, (1r,4r)-4-((5-(4-(morpholinomethyl)phenyl)-2-propyl-1H-pyrrolo[2,3-b]pyridin-4-yl)amino)cyclohexanol hydrochloride] the Ki (AXL) was over 10000 nM and the Ki (MERTK) was 100 to 1000 nM.

For `CCCc1cc2c(N[C@H]3CC[C@H](O)CC3)c(-c3cnn(CCN(C)C)c3)cnc2[nH]1` [Compound 107], the Ki (AXL) was 1000 to 10000 nM and the Ki (MERTK) was 100 to 1000 nM.

With `CCCc1cc2c(N[C@H]3CC[C@H](N)CC3)c(-c3cnn(C)c3)cnc2[nH]1` [Compound 108, (1r,4r)-N1-(5-(1-methyl-1H-pyrazol-4-yl)-2-propyl-1H-pyrrolo[2,3-b]pyridine-4-yl)cyclohexane-1,4-diamine hydrochloride] the Ki (AXL) was 1000 to 10000 nM and the Ki (MERTK) was under 100 nM.

`CCCc1cc2c(N[C@H]3CC[C@H](O)CC3)c(-c3ccc(CNCC45C[C@H]6C[C@@H](C4)C[C@@H](C5)C6)cn3)cnc2[nH]1` [Compound 109] showed a Ki (AXL) of 100 to 1000 nM and a Ki (MERTK) of under 100 nM.

With `N[C@H]1CC[C@H](Nc2c(C(=O)NCc3ccc(-n4ccnc4)cc3)cnc3[nH]c(-c4ccccc4)cc23)CC1` [Compound 110] the Ki (AXL) was 1000 to 10000 nM and the Ki (MERTK) was under 100 nM.

In the case of `CCCc1cc2c(N[C@H]3CC[C@H](N)CC3)c(-c3cc(NC)ncn3)cnc2[nH]1` [Compound 111, (1r,4r)-N^1-(5-(6-(methylamino)pyrimidin-4-yl)-2-propyl-1H-pyrrolo[2,3-b]pyridine-4-yl)cyclohexane-1,4-diamine hydrochloride], the Ki (AXL) is reported as 100 to 1000 nM and the Ki (MERTK) is reported as under 100 nM.

In the case of `CCCc1cc2c(N[C@H]3CC[C@H](N)CC3)c(-c3cc(NC(C)C)ncn3)cnc2[nH]1` [Compound 112], the Ki (AXL) is reported as 100 to 1000 nM and the Ki (MERTK) is reported as under 100 nM.

`CCCc1cc2c(N[C@H]3CC[C@H](N)CC3)c(-c3ccccn3)cnc2[nH]1` [Compound 113] showed a Ki (AXL) of 1000 to 10000 nM and a Ki (MERTK) of under 100 nM.

Work on `CCCc1cc2c(N[C@H]3CC[C@H](N)CC3)c(-c3ccc(F)cn3)cnc2[nH]1` [Compound 114] yielded a Ki (AXL) of 100 to 1000 nM and a Ki (MERTK) of under 100 nM.

`CCCc1cc2c(N[C@H]3CC[C@H](N)CC3)c(-c3ccc(S(=O)(=O)N4CCOCC4)cn3)cnc2[nH]1` [Compound 115] was tested, and the Ki (AXL) was under 100 nM and the Ki (MERTK) was under 100 nM.

For `CCCc1cc2c(N[C@H]3CC[C@H](N)CC3)c(-c3cc(N)ncn3)cnc2[nH]1` [Compound 116], the Ki (AXL) was 100 to 1000 nM and the Ki (MERTK) was under 100 nM.

`CCCc1cc2c(N[C@H]3CC[C@H](N)CC3)c(-c3nccs3)cnc2[nH]1` [Compound 117] gave a Ki (AXL) of 100 to 1000 nM and a Ki (MERTK) of under 100 nM.

Compound `CCCc1cc2c(N[C@H]3CC[C@H](N)CC3)c(-c3ccnc(N4CCCC4)n3)cnc2[nH]1` [Compound 118, (1r,4r)-N1-(2-propyl-5-(2-(pyrrolidin-1-yl)pyrimidin-4-yl)-1H-pyrrolo[2,3-b]pyridine-4-yl)cyclohexane-1,4-diamine hydrochloride] has a Ki (AXL) of 100 to 1000 nM and a Ki (MERTK) of under 100 nM.

For `CCc1cc2c(N[C@H]3CC[C@H](N)CC3)c(C(=O)NCc3ccc(-n4ccnc4)cc3)cnc2[nH]1` [Compound 119, N-(4-(1H-imidazol-1-yl)benzyl)-4-(((1r,4r)-4-aminocyclohexyl)amino)-2-ethyl-1H-pyrrolo[2,3-b]pyridine-5-carboxamide], the Ki (AXL) was 100 to 1000 nM and the Ki (MERTK) was under 100 nM.

`CCCc1cc2c(N[C@H]3CC[C@H](N)CC3)c(-c3ccc(N)cn3)cnc2[nH]1` [Compound 120] gave a Ki (AXL) of 1000 to 10000 nM and a Ki (MERTK) of under 100 nM.

`CCCc1cc2c(N[C@H]3CC[C@H](N)CC3)c(C(=O)NCc3ccc(-n4ccnc4)cc3)cnc2[nH]1` [Compound 121] was tested, and the Ki (AXL) was 100 to 1000 nM and the Ki (MERTK) was under 100 nM.

Work on `CCCc1cc2c(N[C@H]3CC[C@H](N)CC3)c(-c3cc(OC)ncn3)cnc2[nH]1` [Compound 122] yielded a Ki (AXL) of 100 to 1000 nM and a Ki (MERTK) of under 100 nM.

For `CCCc1cc2c(N[C@H]3CC[C@H](N)CC3)c(-c3ccnc(N)n3)cnc2[nH]1` [Compound 123], the Ki (AXL) was under 100 nM and the Ki (MERTK) was under 100 nM.

Compound `CCCc1cc2c(N[C@H]3CC[C@H](N)CC3)c(C(=O)NC3CCOCC3)cnc2[nH]1` [Compound 124] has a Ki (AXL) of 100 to 1000 nM and a Ki (MERTK) of under 100 nM.

In the case of `CCCc1cc2c(N[C@H]3CC[C@H](O)CC3)c(-c3ccc(CN4CCCC4)cn3)cnc2[nH]1` [Compound 125], the Ki (AXL) is reported as 100 to 1000 nM and the Ki (MERTK) is reported as under 100 nM.

`N[C@H]1CC[C@H](Nc2c(C(=O)NCc3ccc(-n4ccnc4)cc3)cnc3[nH]c(C4CCCC4)cc23)CC1` [Compound 126] gave a Ki (AXL) of 100 to 1000 nM and a Ki (MERTK) of under 100 nM.

In the case of `CCCc1cc2c(N[C@H]3CC[C@H](N)CC3)c(-c3ccc(C)nn3)cnc2[nH]1` [Compound 127], the Ki (AXL) is reported as 100 to 1000 nM and the Ki (MERTK) is reported as under 100 nM.

Reference: patent US20200071326A1, “TAM KINASE INHIBITORS” (Syros Pharmaceuticals, Inc., priority 2017, published 2020)
